Laboratory results taken from patent US20230287027A1, “ADJUVANT WITH TLR4 AGONIST ACTIVITY” (Sumitomo Pharma Co., Ltd, priority 2020, published 2023).

How the values were obtained:
human TLR4 = molecular target: T1, human TLR4 (Homo sapiens, UniProt O00206+Q9Y6Y9); experiment: Human TLR4 reporter gene assay (Test 1); format: cell-based; settings: HEK-Blue hTLR4 cell line, SEAP reporter, 37° C. 16-20 hours, 0.1% DMSO; concentration giving half of maximal SEAP level induced with LPS
T1 construct: host or cells: HEK-Blue hTLR4 cell line
Excerpt: Human TLR4 Reporter Gene Assay
(§1) HEK-Blue™ hTLR4 cell line (Invivogen Corporation) is a stably co-transfected cell line which expresses human TLR4, MD2, CD14, and secretory alkaline phosphatase (SEAP) reporter gene under the transcriptional regulation of an NF-κB response element. The TLR4 expression of the cell line has been already tested by RT-PCR, flow cytometry. Transfectants with stable expression were selected using the antibiotic HEK-Blue™ Selection. TLR signaling leads to the translocation of NF-κB and the activation of the promoter results in expression of the SEAP gene. TLR4-specific activation was assessed by determining the level of SEAP produced following incubation of the cells at 37° C. for 16-20 hours with each compound prepared in Examples and Reference examples in the presence of 0.1% (v/v) DMSO. The human TLR4 activity for the present compound was assessed by human TLR4 reporter gene assay, and the concentration of the compound concentration which produced half of the maximal level of SEAP induced with lipopolysaccharide (LPS) was determined as EC50.

mouse TLR4 = molecular target: T2, mouse TLR4 (Mus musculus, UniProt Q9JHF9+Q9QUK6); experiment: Mouse TLR4 reporter gene assay (Test 2); format: cell-based; settings: HEK-Blue mTLR4 cell line, SEAP reporter, 37° C. 16-20 hours, 0.1% DMSO; concentration giving half of maximal SEAP level induced with LPS
T2 construct: host or cells: HEK-Blue mTLR4 cell line
T2 sequence (Q9QUK6 26-835): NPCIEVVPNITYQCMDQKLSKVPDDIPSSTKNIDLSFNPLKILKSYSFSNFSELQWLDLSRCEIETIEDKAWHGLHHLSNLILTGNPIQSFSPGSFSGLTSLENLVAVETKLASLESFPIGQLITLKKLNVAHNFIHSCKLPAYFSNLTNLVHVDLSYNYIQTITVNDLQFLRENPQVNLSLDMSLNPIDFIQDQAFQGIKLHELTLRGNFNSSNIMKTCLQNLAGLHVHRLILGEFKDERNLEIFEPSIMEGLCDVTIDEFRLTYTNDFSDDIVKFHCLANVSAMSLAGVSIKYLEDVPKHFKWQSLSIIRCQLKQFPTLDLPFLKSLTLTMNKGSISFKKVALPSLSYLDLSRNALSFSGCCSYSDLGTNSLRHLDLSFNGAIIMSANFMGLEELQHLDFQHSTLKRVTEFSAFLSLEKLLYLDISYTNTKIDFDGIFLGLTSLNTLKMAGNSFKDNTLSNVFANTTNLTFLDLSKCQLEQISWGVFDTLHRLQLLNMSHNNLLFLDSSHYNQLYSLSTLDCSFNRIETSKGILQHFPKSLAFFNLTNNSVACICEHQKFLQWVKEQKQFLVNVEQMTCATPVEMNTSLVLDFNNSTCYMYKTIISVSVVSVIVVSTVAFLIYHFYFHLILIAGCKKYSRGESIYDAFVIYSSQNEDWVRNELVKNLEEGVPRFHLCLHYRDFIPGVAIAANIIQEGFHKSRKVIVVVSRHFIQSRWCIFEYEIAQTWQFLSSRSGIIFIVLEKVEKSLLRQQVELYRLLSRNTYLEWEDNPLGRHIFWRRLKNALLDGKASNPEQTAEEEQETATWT
T2 sequence (Q9JHF9 19-160): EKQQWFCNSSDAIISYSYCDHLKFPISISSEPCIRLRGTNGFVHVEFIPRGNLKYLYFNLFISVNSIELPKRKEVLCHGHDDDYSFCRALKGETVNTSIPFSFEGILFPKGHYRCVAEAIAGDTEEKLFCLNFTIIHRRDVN
Excerpt: Mouse TLR4 Reporter Gene Assay
as §1, with “mTLR4” for “hTLR4”, “(Invivogen)” for “(Invivogen Corporation)”, “mouse” for “human”, “CD14” for “CD14,”, “SEAP” for “alkaline phosphatase (SEAP)”, “LPS” for “lipopolysaccharide (LPS)”

spleen cell of the mouse = experiment: Test 4: T cell populations in spleen cells of immunized mice by flow cytometry; format: in vivo; settings: intramuscular with OVA, liposome formulation, compared with the negative control group
Procedure: The equal mixture prepared in Test 3 of ovalbumin (OVA) (2 mg/mL) and the formulation prepared in Example 6, Example 7, or Reference example 16 (containing 0.2 or 2 mg/mL the compound of Example 1, Example 2, or Reference example 9) was administered to a mouse (100 μL/mouse). The spleen cell of the mouse was prepared, OVA and Brefeldin A (eBioscience) were added the cell, and the cell was cultured overnight. The collected cell was stained with APC-labeled antimouse CD3e antibody (Invitrogen), PerCP-labeled antimouse CD4 antibody (BioLegend), and Fixable Viability Dye eFluor™ 520 (invitorgen), and fixed with Fixation/Permeabilization buffer (Invitrogen). The cell was treated with Permeabilization buffer (Invitrogen), and then stained with antibody cocktail BV421-labeled anti-IFN-γ antibody (BioLegend), PE-Cy7-labeled anti-IL-2 antibody (eBioscience), and PE-labeled TNF-α (BioLegend). The data were taken and analyzed with FACS Cant II (BD Biosciences) and FLOWJO software (TreeStar).
Separately, the spleen cell was stained with V450-labled antimouse CD3e antibody (invitrogen), Alexa Fluor™ 647-labeled antimouse CD8 antibody (MBL), PE-labeled H-2Kb OVA Tetramer-SIINFEKL (MBL), and Fixable Viability dye eFluor 520 (invitrogen). The data were taken and analyzed with FACS Cant II (BD Biosciences) and FLOWJO software (TreeStar).
Further separately, the spleen cell was stained with V450-labeled antimouse CD3e antibody (invitrogen), Alexa Fluor™ 647-labeled antimouse CD8 antibody (MBL), PE-Cy7-labeled antimouse CD44 antibody (Invitrogen), PerCP-Cy5.5-labeled antimouse CD62L antibody (Invitrogen), and Fixable Viability dye eFluor 520 (Invitrogen). The data were taken and analyzed with FACS Cant II (BD Biosciences) and FLOWJO software (TreeStar).

T1 sequence (O00206 24-839): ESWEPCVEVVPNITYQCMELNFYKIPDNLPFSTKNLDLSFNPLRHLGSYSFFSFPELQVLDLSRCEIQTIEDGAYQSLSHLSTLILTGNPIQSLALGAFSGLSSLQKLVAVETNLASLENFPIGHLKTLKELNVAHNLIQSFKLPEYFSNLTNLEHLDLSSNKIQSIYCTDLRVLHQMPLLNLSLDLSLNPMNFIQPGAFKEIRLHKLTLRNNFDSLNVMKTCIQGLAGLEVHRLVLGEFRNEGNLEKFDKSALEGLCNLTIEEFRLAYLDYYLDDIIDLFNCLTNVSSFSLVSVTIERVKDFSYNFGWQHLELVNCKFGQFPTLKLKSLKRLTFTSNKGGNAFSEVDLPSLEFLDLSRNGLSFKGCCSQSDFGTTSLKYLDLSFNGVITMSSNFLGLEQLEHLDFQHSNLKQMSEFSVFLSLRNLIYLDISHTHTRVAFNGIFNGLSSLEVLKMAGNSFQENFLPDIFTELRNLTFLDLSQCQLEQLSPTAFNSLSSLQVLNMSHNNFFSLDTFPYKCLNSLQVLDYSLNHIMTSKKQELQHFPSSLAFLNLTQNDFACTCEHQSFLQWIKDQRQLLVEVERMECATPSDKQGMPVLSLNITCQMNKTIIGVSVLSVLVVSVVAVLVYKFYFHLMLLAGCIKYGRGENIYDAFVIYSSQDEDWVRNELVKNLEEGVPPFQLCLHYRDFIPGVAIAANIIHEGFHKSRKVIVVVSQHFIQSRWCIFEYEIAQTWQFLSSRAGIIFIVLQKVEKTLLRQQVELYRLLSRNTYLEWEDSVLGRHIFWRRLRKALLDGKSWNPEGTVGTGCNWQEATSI
T1 sequence (Q9Y6Y9 17-160 limits assumed): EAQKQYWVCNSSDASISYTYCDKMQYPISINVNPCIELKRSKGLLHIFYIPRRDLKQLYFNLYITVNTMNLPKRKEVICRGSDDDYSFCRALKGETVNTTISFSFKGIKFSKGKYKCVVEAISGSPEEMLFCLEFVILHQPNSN

EC50 (human TLR4) | EC50 (mouse TLR4) | Structure (SMILES) | percentage of CD8-positive effector memory T-lymphocyte (spleen cell of the mouse) | percentage of MHC-restricted OVA-specific CD8-positive T-lymphocyte (OVA tetramer-positive CD8T cell) (spleen cell of the mouse) | percentage of OVA-specific type 1 helper T-cell (spleen cell of the mouse)
43.5 nM | 14.3 nM | CCCCCCCCCCC[C@H](CC(=O)NC1C(OC[C@@H](NC(=O)C[C@@H](CCCCCCCCCCC)OC(=O)CCCCCCCCC)C(=O)O)OC(CO)C(O)C1OC(=O)C[C@@H](CCCCCCCCCCC)OC(=O)CCCCCCCCc1ccccc1)OC(=O)CCCCCCCCC (stereo partly drawn) [Example 1, (2R)-2-{[(3R)-3-(Decanoyloxy)tetradecanoyl]amino}-3-{[3-{[(3R)-3-(decanoyloxy)tetradecanoyl]amino}-5-hydroxy-6-(hydroxymethyl)-4-({(3R)-3-[(9-phenylnonanoyl)oxy]tetradecanoyl}oxy)oxan-2-yl]oxy}propanoic acid] | significantly increased | significantly increased | significantly increased
15 nM | 14.3 nM | CCCCCCCCCCC[C@H](CC(=O)NC1C(OC[C@H](NC(=O)C[C@@H](CCCCCCCCCCC)OC(=O)CCCCCCCCC)C(=O)O)OC(CO)C(O)C1OC(=O)C[C@@H](CCCCCCCCCCC)OC(=O)CCCCCCCCc1ccccc1)OC(=O)CCCCCCCCC (stereo partly drawn) [Example 2, (2S)-2-{[(3R)-3-(decanoyloxy)tetradecanoyl]amino}-3-{[3-{[(3R)-3-(decanoyloxy)tetradecanoyl]amino}-5-hydroxy-6-(hydroxymethyl)-4-({(3R)-3-[(9-phenylnonanoyl)oxy]tetradecanoyl}oxy)oxan-2-yl]oxy}propanoic acid] | significantly increased | significantly increased | significantly increased
43.9 nM | 28.4 nM | CCCCCCCCCCC[C@H](CC(=O)NC1C(OC[C@@H](NC(=O)C[C@@H](CCCCCCCCCCC)OC(=O)CCCCCCCCC)C(=O)O)OC(CO)C(OP(=O)(O)O)C1OC(=O)C[C@@H](CCCCCCCCCCC)OC(=O)CCCCCCCCc1ccccc1)OC(=O)CCCCCCCCC (stereo partly drawn) [Reference example 9, (2R)-2-{[(3R)-3-(Decanoyloxy)tetradecanoyl]amino}-3-{[3-{[(3R)-3-(decanoyloxy)tetradecanoyl]amino}-6-(hydroxymethyl)-4-({(3R)-3-[(9-phenylnonanoyl)oxy]tetradecanoyl}oxy)-5-(phosphonooxy)oxan-2-yl]oxy}propanoic acid, reference compound] | significantly increased | significantly increased | significantly increased
